Read-outs that look alike come from different tables or passages of the source.
How the values were obtained:
[1] = target: T1, full-length human CSNK1A1 (Homo sapiens, UniProt P48729); test: CSNK1A1 Assay 2 (ADP-Glo, 1 μM ATP, substrate biotin-Ahx-KRRRAL-pS-VASLPGL); assay type: biochemical; settings: Table 3, read-out: CSNK1A1 Assay 2 IC50 [mol/l] (median)
T1 construct: N-terminal Glutathion-S-Transferase (GST) and full-length human CSNK1A1; purchased Life Technologies PV4174; host or cells: baculovirus infected insect cells
T1 sequence (P48729 whole entry): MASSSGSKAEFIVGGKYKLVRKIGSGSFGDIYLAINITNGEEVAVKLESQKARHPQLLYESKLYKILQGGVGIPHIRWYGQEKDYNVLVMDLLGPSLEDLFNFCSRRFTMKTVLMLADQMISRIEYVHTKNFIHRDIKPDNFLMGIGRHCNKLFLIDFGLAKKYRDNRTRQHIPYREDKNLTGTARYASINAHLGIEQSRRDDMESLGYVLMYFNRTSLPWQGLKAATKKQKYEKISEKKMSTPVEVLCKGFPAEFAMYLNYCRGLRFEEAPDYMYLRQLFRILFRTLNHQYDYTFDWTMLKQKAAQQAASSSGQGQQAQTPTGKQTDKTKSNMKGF
Outline: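 GST-tagged full-length human CSNK1A1 from baculovirus-infected insect cells (about 0.0375 ng/μL), preincubated 15 min at 22 °C with compound in HEPES pH 7.5 buffer, with 1 μM ATP and biotin-Ahx-KRRRAL-pS-VASLPGL substrate. ADP formed read by ADP-Glo luminescence.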

[2] = target: T2, wild-type Epidermal Growth Factor Receptor (EGFR) (Homo sapiens, UniProt P00533); test: WT-EGFR Kinase Assay (TR-FRET, 2 mM ATP); assay type: biochemical
T2 construct: a fragment of human EGFR (amino acids R669 to A1210); made in house; host or cells: Sf9 insect cells
T2 sequence (P00533 669-1210): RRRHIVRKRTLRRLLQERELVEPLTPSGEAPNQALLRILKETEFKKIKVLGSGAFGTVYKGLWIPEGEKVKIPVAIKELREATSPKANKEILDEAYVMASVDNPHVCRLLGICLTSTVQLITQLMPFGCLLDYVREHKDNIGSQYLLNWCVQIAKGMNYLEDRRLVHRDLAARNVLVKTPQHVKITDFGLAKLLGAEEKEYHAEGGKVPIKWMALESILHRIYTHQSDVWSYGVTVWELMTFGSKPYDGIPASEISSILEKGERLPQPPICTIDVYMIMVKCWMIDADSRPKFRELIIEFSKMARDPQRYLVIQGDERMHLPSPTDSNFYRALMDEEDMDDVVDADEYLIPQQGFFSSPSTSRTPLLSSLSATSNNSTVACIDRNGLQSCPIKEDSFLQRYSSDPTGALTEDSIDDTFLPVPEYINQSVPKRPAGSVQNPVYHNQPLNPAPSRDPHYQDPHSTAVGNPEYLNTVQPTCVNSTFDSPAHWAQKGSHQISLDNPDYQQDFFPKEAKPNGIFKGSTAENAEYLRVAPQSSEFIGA
Outline: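 GST-fused human EGFR fragment (R669-A1210) from Sf9 cells, typically 7.6 pg/μL, pre-incubated with compound 15 min at 22° C in Hepes pH 7.0 buffer with MgCl2, DTT and vanadate; biotinylated peptide substrate. After EDTA stop, phosphopeptide detected by TR-FRET (anti-phosphotyrosine Tb-cryptate/streptavidin-XL665), 665/620 nm emission ratio.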

[3] = EGFR Wildtyp 2 mM ATP IC50 [mol/l] (median), Table 4
[4] = read-out: EGFR Wildtyp 2 mM ATP IC50 [mol/l] (median), Table 4

SMILES | IC50 [1] | IC50 [2, 3] | IC50 [2, 4]
Cc1cnc2c(-c3ccccn3)c(-c3ccnc(NC(=O)C(CC(F)F)c4ccc(F)cc4)c3)[nH]c2c1 (single isomer, unassigned) [Example 8, 4,4-difluoro-2-(4-fluorophenyl)-N-{4-[6-methyl-3-(pyridin-2-yl)-1H-pyrrolo[3,2-b]pyridin-2-yl]pyridin-2-yl}butanamide] | 3.01 nM | > 20000 nM | 
O=C(Nc1cc(-c2[nH]c3cc(F)cnc3c2-c2ccccc2)ccn1)C(CC(F)F)c1ccc(F)cc1 (single isomer, unassigned; (+)) [Example 21, (+)-4,4-difluoro-2-(4-fluorophenyl)-N-[4-(6-fluoro-3-phenyl-1H-pyrrolo[3,2-b]pyridin-2-yl)pyridin-2-yl]butanamide] | 4.21 nM |  | > 20000 nM
COc1ncnc2c(-c3ccccn3)c(-c3ccnc(NC(=O)C(CC(F)F)c4ccc(F)cc4)c3)[nH]c12 (stereo not shown) [Example 113, 4,4-difluoro-2-(4-fluorophenyl)-N-{4-[4-methoxy-7-(pyridin-2-yl)-5H-pyrrolo[3,2-d]pyrimidin-6-yl]pyridin-2-yl}butanamide] | 3.74 nM | > 20000 nM | 
O=C(Nc1cc(-c2[nH]c3cccnc3c2-c2cccc(F)n2)ccn1)C(CC(F)F)c1ccc(F)cc1 (racemic) [Example 25, 4,4-difluoro-2-(4-fluorophenyl)-N-{4-[3-(6-fluoropyridin-2-yl)-1H-pyrrolo[3,2-b]pyridin-2-yl]pyridin-2-yl}butanamide] | 2.77 nM | > 20000 nM | 
O=C(Nc1cc(-c2[nH]c3c(OCC4CC4)ncnc3c2-c2ccccn2)ccn1)C(CC(F)F)c1ccc(F)cc1 (single isomer, unassigned) [Example 129, (2R or S)—N-{4-[4-(cyclopropylmethoxy)-7-(pyridin-2-yl)-5H-pyrrolo[3,2-d]pyrimidin-6-yl]pyridin-2-yl}-4,4-difluoro-2-(4-fluorophenyl)butanamide] | 4.52 nM | 9500 nM | 
O=C(Nc1cc(-c2[nH]c3c(OCC(F)(F)F)ncnc3c2-c2ccccn2)ccn1)C(CC(F)F)c1ccc(F)cc1 (single isomer, unassigned) [Example 124, (2R or S)-4,4-difluoro-2-(4-fluorophenyl)-N-{4-[7-(pyridin-2-yl)-4-(2,2,2-trifluoroethoxy)-5H-pyrrolo[3,2-d]pyrimidin-6-yl]pyridin-2-yl}butanamide] | 30 nM |  | > 20000 nM
O=C(Nc1cc(-c2[nH]c3c(CC4CC4)cc(F)nc3c2-c2ccccn2)ccn1)C(CC(F)F)c1ccc(F)cc1 (single isomer, unassigned) [Example 47, (2R or S)—N-{4-[7-(cyclopropylmethyl)-5-fluoro-3-(pyridin-2-yl)-1H-pyrrolo[3,2-b]pyridin-2-yl]pyridin-2-yl}-4,4-difluoro-2-(4-fluorophenyl)butanamide] | 31.6 nM | > 20000 nM | 
O=C(Nc1cc(-c2[nH]c3c(C4CCCO4)cc(F)nc3c2-c2ccccn2)ccn1)C(CC(F)F)c1ccc(F)cc1 (single isomer, unassigned) [Example 116, (2R or S)-4,4-difluoro-N-(4-{5-fluoro-7-[(2R or S)-oxolan-2-yl]-3-(pyridin-2-yl)-1H-pyrrolo[3,2-b]pyridin-2-yl}pyridin-2-yl)-2-(4-fluorophenyl)butanamide] | 5.1 nM | 15100 nM | 
O=C(Nc1cc(-c2[nH]c3cccnc3c2-c2ccccn2)ccn1)C(CC(F)F)c1ccc(F)cc1 (single isomer, unassigned; (-)) [Example 12, (−)-4,4-difluoro-2-(4-fluorophenyl)-N-{4-[3-(pyridin-2-yl)-1H-pyrrolo[3,2-b]pyridin-2-yl]pyridin-2-yl}butanamide] | 4.45 nM |  | > 20000 nM
O=C(Nc1cc(-c2[nH]c3c(N4CCNCC4)ccnc3c2-c2ccccn2)ccn1)C(CC(F)F)c1ccc(F)cc1 (single isomer, unassigned) [Example 93, (2R or S)-4,4-difluoro-2-(4-fluorophenyl)-N-{4-[7-(piperazin-1-yl)-3-(pyridin-2-yl)-1H-pyrrolo[3,2-b]pyridin-2-yl]pyridin-2-yl}butanamide] | 5.35 nM | > 20000 nM | 
O=C(Nc1cc(-c2[nH]c3c(OCC4CC4)ncnc3c2-c2ccccn2)ccn1)C(CC(F)F)c1ccc(F)cc1 (single isomer, unassigned) [Example 130, (2R or S)—N-{4-[4-(cyclopropylmethoxy)-7-(pyridin-2-yl)-5H-pyrrolo[3,2-d]pyrimidin-6-yl]pyridin-2-yl}-4,4-difluoro-2-(4-fluorophenyl)butanamide] | 43.7 nM | 6670 nM | 
O=C(Nc1cc(-c2[nH]c3cc(F)cnc3c2-c2ccccn2)ccn1)C(CC(F)F)c1ccc(F)cc1 (single isomer, unassigned; (-)) [Example 18, (−)-4,4-difluoro-2-(4-fluorophenyl)-N-{4-[6-fluoro-3-(pyridin-2-yl)-1H-pyrrolo[3,2-b]pyridin-2-yl]pyridin-2-yl}butanamide] | 16.2 nM |  | > 20000 nM
COc1cc(F)nc2c(-c3ccccn3)c(-c3ccnc(NC(=O)C(CC(F)F)c4ccc(F)cc4)c3)[nH]c12 (single isomer, unassigned; (-)) [Example 41, (−)-4,4-difluoro-N-{4-[5-fluoro-7-methoxy-3-(pyridin-2-yl)-1H-pyrrolo[3,2-b]pyridin-2-yl]pyridin-2-yl}-2-(4-fluorophenyl)butanamide] | 3.37 nM |  | > 20000 nM
Cc1ccc2[nH]c(-c3ccnc(NC(=O)C(CC(F)F)c4ccc(F)cc4)c3)c(-c3ccccn3)c2n1 (single isomer, unassigned) [Example 5, 4,4-difluoro-2-(4-fluorophenyl)-N-{4-[5-methyl-3-(pyridin-2-yl)-1H-pyrrolo[3,2-b]pyridin-2-yl]pyridin-2-yl}butanamide] | 4.43 nM | > 20000 nM | 
O=C(Nc1cc(-c2[nH]c3ccc(F)nc3c2-c2ccc(F)cn2)ccn1)C(CC(F)F)c1ccc(F)cc1 (single isomer, unassigned; (-)) [Example 110, (−)-4,4-difluoro-N-{4-[5-fluoro-3-(5-fluoropyridin-2-yl)-1H-pyrrolo[3,2-b]pyridin-2-yl]pyridin-2-yl}-2-(4-fluorophenyl)butanamide] | 47.6 nM |  | > 20000 nM
O=C(Nc1cc(-c2[nH]c3c(CC4CC4)cc(F)nc3c2-c2ccccn2)ccn1)C(CC(F)F)c1ccc(F)cc1 (racemic) [Example 46, (2RS)—N-{4-[7-(cyclopropylmethyl)-5-fluoro-3-(pyridin-2-yl)-1H-pyrrolo[3,2-b]pyridin-2-yl]pyridin-2-yl}-4,4-difluoro-2-(4-fluorophenyl)butanamide] | 23.2 nM | > 20000 nM | 
O=C(Nc1cc(-c2[nH]c3c(OCC(F)(F)F)ncnc3c2-c2ccccn2)ccn1)C(CC(F)F)c1ccc(F)cc1 (racemic) [Example 122, (2RS)-4,4-difluoro-2-(4-fluorophenyl)-N-{4-[7-(pyridin-2-yl)-4-(2,2,2-trifluoroethoxy)-5H-pyrrolo[3,2-d]pyrimidin-6-yl]pyridin-2-yl}butanamide] | 7.69 nM | > 20000 nM | 
O=C(Nc1cc(-c2[nH]c3c(C4CCCO4)cc(F)nc3c2-c2ccccn2)ccn1)C(CC(F)F)c1ccc(F)cc1 (single isomer, unassigned) [Example 115, (2R or S)-4,4-difluoro-N-(4-{5-fluoro-7-[(2R or S)-oxolan-2-yl]-3-(pyridin-2-yl)-1H-pyrrolo[3,2-b]pyridin-2-yl}pyridin-2-yl)-2-(4-fluorophenyl)butanamide] | 5.84 nM | 19600 nM | 
CC(C)(O)c1cc(F)nc2c(-c3ccccn3)c(-c3ccnc(NC(=O)C(CC(F)F)c4ccc(F)cc4)c3)[nH]c12 (racemic) [Example 98, (2RS)-4,4-difluoro-N-{4-[5-fluoro-7-(2-hydroxypropan-2-yl)-3-(pyridin-2-yl)-1H-pyrrolo[3,2-b]pyridin-2-yl]pyridin-2-yl}-2-(4-fluorophenyl)butanamide] | 7.36 nM | > 20000 nM | 
O=C(Nc1cc(-c2[nH]c3c(OCC(F)(F)F)ncnc3c2-c2ccccn2)ccn1)C(CC(F)F)c1ccc(F)cc1 (single isomer, unassigned) [Example 123, (2R or S)-4,4-difluoro-2-(4-fluorophenyl)-N-{4-[7-(pyridin-2-yl)-4-(2,2,2-trifluoroethoxy)-5H-pyrrolo[3,2-d]pyrimidin-6-yl]pyridin-2-yl}butanamide] | 4.5 nM | > 20000 nM | 
O=C(Nc1cc(-c2[nH]c3cccnc3c2-c2ccccc2)ccn1)C(CC(F)F)c1ccc(F)cc1 (single isomer, unassigned; (+)) [Example 24, (+)-4,4-difluoro-2-(4-fluorophenyl)-N-[4-(3-phenyl-1H-pyrrolo[3,2-b]pyridin-2-yl)pyridin-2-yl]butanamide] | 1.62 nM |  | > 20000 nM
O=C(Nc1cc(-c2[nH]c3nccnc3c2-c2ccccn2)ccn1)[C@@H](CC(F)F)c1ccc(F)cc1 (single isomer, unassigned) [Example 32] | 1.37 nM | > 20000 nM | 
Cc1ccc2[nH]c(-c3ccnc(NC(=O)C(CC(F)F)c4ccc(F)cc4)c3)c(-c3ccccn3)c2n1 (single isomer, unassigned) [Example 6, 4,4-difluoro-2-(4-fluorophenyl)-N-{4-[5-methyl-3-(pyridin-2-yl)-1H-pyrrolo[3,2-b]pyridin-2-yl]pyridin-2-yl}butanamide] | 68.2 nM |  | > 20000 nM
